In patent US8129371B2, “Thienopyrimidine and pyrazolopyrimidine compounds and their use as mTOR kinase and PI3 kinase inhibitors” (Wyeth LLC, priority 2007, dated 2012):
pIC50: −log10 of the molar value.

Key:
Human mTOR (FLAG-TOR) = target: T1, Human mTOR (FLAG-TOR) (Homo sapiens, UniProt P42345); experiment: Human mTOR kinase assay with purified enzyme, DELFIA format; type: biochemical
T1 construct: FLAG
How it was run: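 Purified FLAG-mTOR in HEPES pH 7.4 buffer with 10 mM MnCl2 was preincubated with inhibitor and reacted 2 h at room temperature with His6-S6K substrate, then stopped with EDTA/EGTA. Phospho-T389 S6K detected by DELFIA with Eu-labelled antibody (40 ng/mL) after plate capture; inhibition computed from signal.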

PI3K [1] = target: T2, PI3K (Homo sapiens, UniProt P42336); experiment: Fluorescence polarization assay for PI3K; type: biochemical; conditions: PI3 Kinase α; read-out: PI3 Kinase α IC50
T2 construct: PI3 Kinase α IC50; other: PI3 Kinase α; other: PI3 Kinase α isoform, fluorescence polarization
T2 sequence (P42336 whole entry, canonical isoform): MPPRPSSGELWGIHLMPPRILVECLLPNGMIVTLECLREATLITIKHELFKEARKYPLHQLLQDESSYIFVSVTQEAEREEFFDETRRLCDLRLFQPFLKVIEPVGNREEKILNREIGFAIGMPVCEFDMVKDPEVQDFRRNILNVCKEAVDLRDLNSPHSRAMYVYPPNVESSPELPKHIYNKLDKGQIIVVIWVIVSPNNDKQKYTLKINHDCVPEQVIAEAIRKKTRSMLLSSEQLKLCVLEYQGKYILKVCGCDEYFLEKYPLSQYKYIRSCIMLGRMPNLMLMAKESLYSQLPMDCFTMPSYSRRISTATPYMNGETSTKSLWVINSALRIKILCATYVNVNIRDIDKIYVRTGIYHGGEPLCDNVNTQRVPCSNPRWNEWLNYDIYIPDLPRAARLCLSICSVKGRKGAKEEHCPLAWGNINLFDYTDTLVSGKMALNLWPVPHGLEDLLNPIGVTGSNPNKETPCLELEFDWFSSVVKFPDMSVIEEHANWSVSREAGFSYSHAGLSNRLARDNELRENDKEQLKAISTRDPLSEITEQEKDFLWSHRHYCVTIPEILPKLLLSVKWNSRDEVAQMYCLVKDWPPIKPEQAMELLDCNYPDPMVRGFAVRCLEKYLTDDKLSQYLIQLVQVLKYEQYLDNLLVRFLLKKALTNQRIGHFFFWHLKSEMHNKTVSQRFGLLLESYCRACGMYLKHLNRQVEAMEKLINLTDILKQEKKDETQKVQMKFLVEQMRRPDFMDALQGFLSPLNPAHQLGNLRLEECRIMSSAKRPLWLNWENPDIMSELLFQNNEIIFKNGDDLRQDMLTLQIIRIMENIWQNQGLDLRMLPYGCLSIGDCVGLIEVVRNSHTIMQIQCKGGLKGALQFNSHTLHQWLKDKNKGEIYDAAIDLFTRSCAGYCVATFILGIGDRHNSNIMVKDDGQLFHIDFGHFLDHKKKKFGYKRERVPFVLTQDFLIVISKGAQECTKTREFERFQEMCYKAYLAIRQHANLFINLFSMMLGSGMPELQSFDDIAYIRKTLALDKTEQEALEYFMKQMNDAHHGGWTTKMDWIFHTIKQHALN
How it was run: (§1)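 PI3K was preincubated with compound (final DMSO 1%), and the reaction was started with PIP2/ATP substrate and run 30–60 min. It was stopped with a detector mix giving 10 nM red probe and 70 nM GST-GRP.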

PI3K [2] = target: T3, PI3K (Homo sapiens, UniProt P48736); experiment: Fluorescence polarization assay for PI3K; type: biochemical; conditions: PI3 Kinase γ; read-out: PI3 Kinase γ IC50
T3 construct: PI3 Kinase γ IC50; other: PI3 Kinase γ; other: PI3 Kinase γ isoform, fluorescence polarization
T3 sequence (P48736 whole entry, canonical isoform): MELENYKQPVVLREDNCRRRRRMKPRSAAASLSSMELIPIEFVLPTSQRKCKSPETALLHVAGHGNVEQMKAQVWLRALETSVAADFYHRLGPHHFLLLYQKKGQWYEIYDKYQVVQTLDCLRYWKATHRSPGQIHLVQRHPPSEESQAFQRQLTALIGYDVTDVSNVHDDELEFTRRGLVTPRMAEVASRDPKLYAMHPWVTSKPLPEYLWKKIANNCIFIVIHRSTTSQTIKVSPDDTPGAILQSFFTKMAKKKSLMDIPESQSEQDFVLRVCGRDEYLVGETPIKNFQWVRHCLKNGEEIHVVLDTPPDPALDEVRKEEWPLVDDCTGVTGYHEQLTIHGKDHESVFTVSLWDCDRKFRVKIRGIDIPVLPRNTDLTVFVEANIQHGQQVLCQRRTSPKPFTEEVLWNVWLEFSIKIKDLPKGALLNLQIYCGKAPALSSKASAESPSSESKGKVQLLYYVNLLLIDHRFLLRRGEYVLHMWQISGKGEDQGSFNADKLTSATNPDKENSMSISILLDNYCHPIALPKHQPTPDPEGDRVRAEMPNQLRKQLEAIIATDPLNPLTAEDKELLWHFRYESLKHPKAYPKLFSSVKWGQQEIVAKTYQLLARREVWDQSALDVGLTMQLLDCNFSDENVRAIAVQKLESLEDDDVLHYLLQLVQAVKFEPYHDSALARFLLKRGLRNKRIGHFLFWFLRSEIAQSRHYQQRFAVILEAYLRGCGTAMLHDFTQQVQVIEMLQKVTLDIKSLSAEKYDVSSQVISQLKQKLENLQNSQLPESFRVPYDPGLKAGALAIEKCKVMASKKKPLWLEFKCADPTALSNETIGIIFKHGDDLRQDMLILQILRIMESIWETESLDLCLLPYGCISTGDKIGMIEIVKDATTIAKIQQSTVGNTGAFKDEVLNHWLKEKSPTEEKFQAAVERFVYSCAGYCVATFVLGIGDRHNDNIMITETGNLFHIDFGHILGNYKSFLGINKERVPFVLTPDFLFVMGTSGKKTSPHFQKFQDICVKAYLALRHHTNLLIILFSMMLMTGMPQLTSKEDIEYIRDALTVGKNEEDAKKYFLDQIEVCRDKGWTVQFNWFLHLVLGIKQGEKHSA
How it was run: as §1

prostate line LNCap = experiment: In vitro cell culture growth assay (MTS), LNCap; type: cell-based; conditions: Homo sapiens, LNCaP, 72 h, LNCap cells, three days after drug treatment
How it was run: (§2)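 Growth is reported as percent of vehicle-treated control grown in the same plate, with viability determined by metabolic conversion of MTS dye and absorbance read at 490 nm. Compounds were applied one day after plating and left for three days.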

breast line MDA468 = experiment: In vitro cell culture growth assay (MTS), MDA468; type: cell-based; conditions: Homo sapiens, 72 h, MDA468 cells, three days after drug treatment
How it was run: as §2

| Compound | pIC50 (Human mTOR (FLAG-TOR)) | pIC50 (PI3K [1]) | pIC50 (PI3K [2]) | pIC50 (prostate line LNCap) | pIC50 (breast line MDA468) |
| --- | --- | --- | --- | --- | --- |
| CCn1ncc2c(N3CC4CCC(C3)O4)nc(-c3ccc(NC(=O)NCCNC)cc3)nc21 [Example 174, 1-{4-[1-ethyl-4-(8-oxa-3-azabicyclo[3.2.1]oct-3-yl)-1H-pyrazolo[3,4-d]pyrimidin-6-yl]phenyl}-3-[2-(methylamino)ethyl]urea] | 8.33 | 6.63 | 5.30 | 6.72 | 6.15 |
| CCn1ncc2c(N3CC4CCC(C3)O4)nc(-c3ccc(NC(=O)NCCN(C)C)cc3)nc21 [Example 175, 1-[2-(dimethylamino)ethyl]-3-{4-[1-ethyl-4-(8-oxa-3-azabicyclo[3.2.1]oct-3-yl)-1H-pyrazolo[3,4-d]pyrimidin-6-yl]phenyl}urea] | 7.28 | 6.08 | 6.18 | 6.46 | 5.90 |
| CCn1ncc2c(N3CC4CCC(C3)O4)nc(-c3ccc(NC(=O)NCCCN)cc3)nc21 [Example 176, 1-(3-aminopropyl)-3-{4-[1-ethyl-4-(8-oxa-3-azabicyclo[3.2.1]oct-3-yl)-1H-pyrazolo[3,4-d]pyrimidin-6-yl]phenyl}urea] | 8.45 | 6.41 | 5.02 | 5.26 | 4.55 |
| CCn1ncc2c(N3CC4CCC(C3)O4)nc(-c3ccc(NC(=O)NCCCN(C)C)cc3)nc21 [Example 177, 1-[3-(dimethylamino)propyl]-3-{4-[1-ethyl-4-(8-oxa-3-azabicyclo[3.2.1]oct-3-yl)-1H-pyrazolo[3,4-d]pyrimidin-6-yl]phenyl}urea] | 7.16 | 5.78 | < 5.00 | 5.92 | 5.35 |
| CCn1ncc2c(N3CC4CCC(C3)O4)nc(-c3ccc(NC(=O)NCCN4CCN(C)CC4)cc3)nc21 [Example 178, 1-{4-[1-ethyl-4-(8-oxa-3-azabicyclo[3.2.1]oct-3-yl)-1H-pyrazolo[3,4-d]pyrimidin-6-yl]phenyl}-3-[2-(4-methylpiperazin-1-yl)ethyl]urea] | 7.06 | 6.02 | < 5.00 | 5.72 | 5.24 |
| CCn1ncc2c(N3CC4CCC(C3)O4)nc(-c3ccc(NC(=O)NCCN4CCOCC4)cc3)nc21 [Example 179, 1-{4-[1-ethyl-4-(8-oxa-3-azabicyclo[3.2.1]oct-3-yl)-1H-pyrazolo[3,4-d]pyrimidin-6-yl]phenyl}-3-(2-morpholin-4-ylethyl)urea] | 7.18 | 6.32 | 5.00 | 5.77 | 5.30 |
| CCn1ncc2c(N3CC4CCC(C3)O4)nc(-c3ccc(NC(=O)Nc4ccc(N5CCN(C)CC5)cc4)cc3)nc21 [Example 180, 1-{4-[1-ethyl-4-(8-oxa-3-azabicyclo[3.2.1]oct-3-yl)-1H-pyrazolo[3,4-d]pyrimidin-6-yl]phenyl}-3-[4-(4-methylpiperazin-1-yl)phenyl]urea] | 9.56 | 7.25 | 5.87 | > 9.00 | > 9.00 |
| CCn1ncc2c(N3CC4CCC(C3)O4)nc(-c3ccc(NC(=O)Nc4ccc(N5CCOCC5)cc4)cc3)nc21 [Example 181, 1-{4-[1-ethyl-4-(8-oxa-3-azabicyclo[3.2.1]oct-3-yl)-1H-pyrazolo[3,4-d]pyrimidin-6-yl]phenyl}-3-(4-morpholin-4-ylphenyl)urea] | 9.74 | 6.76 | 5.44 | > 9.00 | > 9.00 |
| CCn1ncc2c(N3CC4CCC(C3)O4)nc(-c3ccc(NC(=O)Nc4ccc(CO)cc4)cc3)nc21 [Example 182, 1-{4-[1-ethyl-4-(8-oxa-3-azabicyclo[3.2.1]oct-3-yl)-1H-pyrazolo[3,4-d]pyrimidin-6-yl]phenyl}-3-[4-(hydroxymethyl)phenyl]urea] | 9.92 | 7.40 | 5.90 | > 9.00 | > 9.00 |
| CCn1ncc2c(N3CC4CCC(C3)O4)nc(-c3ccc(NC(=O)Nc4ccc(CCO)cc4)cc3)nc21 [Example 183, 1-{4-[1-ethyl-4-(8-oxa-3-azabicyclo[3.2.1]oct-3-yl)-1H-pyrazolo[3,4-d]pyrimidin-6-yl]phenyl}-3-[4-(2-hydroxyethyl)phenyl]urea] | 9.92 | 7.17 | 5.82 | > 9.00 | > 9.00 |
| CCn1ncc2c(N3CC4CCC(C3)O4)nc(-c3ccc(NC(=O)Nc4ccc(N5CCOCC5)nc4)cc3)nc21 [Example 184, 1-{4-[1-ethyl-4-(8-oxa-3-azabicyclo[3.2.1]oct-3-yl)-1H-pyrazolo[3,4-d]pyrimidin-6-yl]phenyl}-3-(6-morpholin-4-ylpyridin-3-yl)urea] | 9.53 | 5.67 | 5.11 | 9.00 | 8.10 |
| CCn1ncc2c(N3CC4CCC(C3)O4)nc(-c3ccc(NC(=O)Nc4ccc(N5CCN(C)CC5)nc4)cc3)nc21 [Example 185, 1-{4-[1-ethyl-4-(8-oxa-3-azabicyclo[3.2.1]oct-3-yl)-1H-pyrazolo[3,4-d]pyrimidin-6-yl]phenyl}-3-[6-(4-methylpiperazin-1-yl)pyridin-3-yl]urea] | 9.13 | 6.71 | 5.64 | > 9.00 | 9.00 |
| CCn1ncc2c(N3CC4CCC(C3)O4)nc(-c3ccc(NC(=O)Nc4ccc(OCCN(C)C)cc4)cc3)nc21 [Example 186, 1-{4-[2-(dimethylamino)ethoxy]phenyl}-3-{4-[1-ethyl-4-(8-oxa-3-azabicyclo[3.2.1]oct-3-yl)-1H-pyrazolo[3,4-d]pyrimidin-6-yl]phenyl}urea] | 9.08 | 6.87 | 5.75 | > 9.00 | 8.10 |
| CCn1ncc2c(N3CC4CCC(C3)O4)nc(-c3ccc(NC(=O)Nc4ccc(OC)cc4)cc3)nc21 [Example 187, 1-{4-[1-ethyl-4-(8-oxa-3-azabicyclo[3.2.1]oct-3-yl)-1H-pyrazolo[3,4-d]pyrimidin-6-yl]phenyl}-3-(4-methoxyphenyl)urea] | 9.39 | 6.70 | 5.42 | 9.00 | 7.72 |
| CCn1ncc2c(N3CC4CCC(C3)O4)nc(-c3ccc(NC(=O)Nc4ccc(Cl)cc4)cc3)nc21 [Example 188, 1-(4-chlorophenyl)-3-{4-[1-ethyl-4-(8-oxa-3-azabicyclo[3.2.1]oct-3-yl)-1H-pyrazolo[3,4-d]pyrimidin-6-yl]phenyl}urea] | 8.96 | 6.33 | 5.53 | 8.00 | 6.72 |
| CCn1ncc2c(N3CC4CCC(C3)O4)nc(-c3ccc(NC(=O)Nc4ccc(C)cc4)cc3)nc21 [Example 189, 1-{4-[1-ethyl-4-(8-oxa-3-azabicyclo[3.2.1]oct-3-yl)-1H-pyrazolo[3,4-d]pyrimidin-6-yl]phenyl}-3-(4-methylphenyl)urea] | 9.05 | 6.07 | 4.96 | 8.30 | 7.70 |
| CCn1ncc2c(N3CC4CCC(C3)O4)nc(-c3ccc(NC(=O)Nc4ccc(C#N)cc4)cc3)nc21 [Example 190, 1-(4-cyanophenyl)-3-{4-[1-ethyl-4-(8-oxa-3-azabicyclo[3.2.1]oct-3-yl)-1H-pyrazolo[3,4-d]pyrimidin-6-yl]phenyl}urea] | 9.30 | 6.27 | 5.52 | 8.40 | 7.48 |
| CCn1ncc2c(N3CC4CCC(C3)O4)nc(-c3ccc(NC(=O)OCC(C)O)cc3)nc21 (stereo not drawn) [Example 191, 2-hydroxypropyl {4-[1-ethyl-4-(8-oxa-3-azabicyclo[3.2.1]oct-3-yl)-1H-pyrazolo[3,4-d]pyrimidin-6-yl]phenyl}carbamate] | 8.45 | 5.18 | < 5.00 | 6.68 | 6.11 |
| COC(=O)Nc1ccc(-c2nc(N3CC4CCC(C3)O4)c3cnn(CCO)c3n2)cc1 [Example 192, methyl {4-[1-(2-hydroxyethyl)-4-(8-oxa-3-azabicyclo[3.2.1]oct-3-yl)-1H-pyrazolo[3,4-d]pyrimidin-6-yl]phenyl}carbamate] | 7.59 | 5.68 | < 5.00 | 5.99 | 5.30 |
| CNC(=O)Nc1ccc(-c2nc(N3CC4CCC(C3)O4)c3cnn(CCO)c3n2)cc1 [Example 193, 1-{4-[1-(2-hydroxyethyl)-4-(8-oxa-3-azabicyclo[3.2.1]oct-3-yl)-1H-pyrazolo[3,4-d]pyrimidin-6-yl]phenyl}-3-methylurea] | 8.55 | 6.43 | < 5.00 | 6.19 | 6.01 |
| CCNC(=O)Nc1ccc(-c2nc(N3CC4CCC(C3)O4)c3cnn(CCO)c3n2)cc1 [Example 194, 1-ethyl-3-{4-[1-(2-hydroxyethyl)-4-(8-oxa-3-azabicyclo[3.2.1]oct-3-yl)-1H-pyrazolo[3,4-d]pyrimidin-6-yl]phenyl}urea] | 8.57 | 5.82 | < 5.00 | 6.55 | 6.10 |
